Counter-ions that a name gives are not always drawn.
Assays:
[1] = tested on: Prevotella sp. (anaerobe); assay: microbe, parasite or virus in culture; assay type: cell-based
Enterobacter aerogenes = assay: microbe, parasite or virus in culture; assay type: cell-based
Providencia spp. = assay: microbe, parasite or virus in culture; assay type: cell-based
[2] = tested on: Proteus mirabilis, vulgaris; assay: microbe, parasite or virus in culture; assay type: cell-based
Burkholderia mallei = assay: microbe, parasite or virus in culture; assay type: cell-based
Neisseria gonorrhoea [3] = tested on: Neisseria gonorrhoea
[4] = tested on: Coagulase-negatives Staphylococcus; assay: microbe, parasite or virus in culture; assay type: cell-based
[5] = tested on: Ureaplasma species (atypical); assay: microbe, parasite or virus in culture; assay type: cell-based
Helicobacter pylori = assay: microbe, parasite or virus in culture
Bacillus anthracis = assay: microbe, parasite or virus in culture; assay type: cell-based
Neisseria gonorrhoea [6] = assay: microbe, parasite or virus in culture
[7] = pH solution stability study; assay type: physicochemical
Protocol: The weighed quantity of compound of Formula (I) formate salt was added to each buffers system and dissolved. Volume make up was performed with WFI. The 5 mL of sample was filled in 5 mL USP Type I Vials. Vials were stopped and sealed. These vials were kept at 25° C. for stability study. The blank buffers/placebo samples were also placed along with active samples.

[8] = tested on: Mycoplasma species (atypical); assay: microbe, parasite or virus in culture; assay type: cell-based
Francisella tularensis = assay: microbe, parasite or virus in culture; assay type: cell-based
Legionella pneumophila = assay: microbe, parasite or virus in culture; assay type: cell-based
Hemophilus influenzae = assay: microbe, parasite or virus in culture; assay type: cell-based
[9] = tested on: Bacteroides fragilis (anaerobe); assay: microbe, parasite or virus in culture; assay type: cell-based
Moraxella catarrhalis = assay: microbe, parasite or virus in culture; assay type: cell-based
Enterococcus faecalis = assay: microbe, parasite or virus in culture; assay type: cell-based
[10] = tested on: Fusobacterium spp. (anaerobe); assay: microbe, parasite or virus in culture; assay type: cell-based
[11] = Legionella pneumophila clinical isolates, N 35

For `Cn1c(=O)ccc2ccc(F)c(CCNC[C@H]3CN(c4cnc5c(n4)NC(=O)CO5)C(=O)O3)c21` [compound of Formula (I) formate salt, (S)-6-(5-(((2-(7-fluoro-1-methyl-2-oxo-1,2-dihydroquinolin-8-yl)ethyl)amino)methyl)-2-oxooxazolidin-3-yl)-2H-pyrazino[2,3-b][1,4]oxazin-3(4H)-one formate], the “MIC Range, high end” value [1] was 1 mg/L, the “MIC Range, low end” value [1] was ≤0.015 mg/L and the MIC50 ([1]; Prevotella) was ≤ 0.015 mg/L. The MIC90 ([1]; Prevotella) was ≤ 0.015 mg/L, the “MIC Range, high end” value (Enterobacter aerogenes) was 0.25 mg/L and the “MIC Range, low end” value (Enterobacter aerogenes) was 0.25 mg/L. The MIC50 (Enterobacter aerogenes; Klebsiella aerogenes) was 0.25 mg/L, the MIC90 (Enterobacter aerogenes; Klebsiella aerogenes) was 0.25 mg/L and the “MIC Range, high end” value (Providencia spp.) was 32 mg/L. The “MIC Range, low end” value (Providencia spp.) was 0.06 mg/L, the MIC50 (Providencia spp.; Providencia) was 0.5 mg/L and the MIC90 (Providencia spp.; Providencia) was 2 mg/L. The “MIC Range, high end” value [2] was 2 mg/L, the “MIC Range, low end” value [2] was 0.03 mg/L and the MIC50 ([2]; Proteus mirabilis) was 0.12 mg/L. For the same compound, the MIC90 ([2]; Proteus mirabilis) was 0.5 mg/L, the MIC50 (Burkholderia mallei) was 0.25 mg/L and the MIC90 (Burkholderia mallei) was 1 mg/L. The “MIC Range, high end” value (Burkholderia mallei; N 36 strains) was 4 mg/L, the “MIC Range, low end” value (Burkholderia mallei; N 36 strains) was ≤0.015 mg/L and the “MIC Range, high end” value (Neisseria gonorrhoea [3]) was ≤0.015 mg/L. The “MIC Range, low end” value (Neisseria gonorrhoea [3]) was ≤0.015 mg/L, the “MIC Range, high end” value [4] was 0.03 mg/L and the “MIC Range, low end” value [4] was <0.015 mg/L. The MIC50 ([4]; Staphylococcus) was < 0.015 mg/L, the MIC90 ([4]; Staphylococcus) was < 0.015 mg/L and the “MIC Range, high end” value [5] was 0.03 mg/L. For the same compound, the “MIC Range, low end” value [5] was ≤0.015 mg/L, the MIC50 ([5]; Ureaplasma) was ≤ 0.015 mg/L and the MIC90 ([5]; Ureaplasma) was ≤ 0.015 mg/L. The MIC50 (Helicobacter pylori) was ≤ 0.015 mg/L, the MIC90 (Helicobacter pylori) was ≤ 0.015 mg/L and the MIC50 (Bacillus anthracis) was ≤ 0.015 mg/L. The MIC90 (Bacillus anthracis) was ≤ 0.015 mg/L, the “MIC Range, high end” value (Bacillus anthracis; N 42 strains) was ≤0.015 mg/L and the “MIC Range, low end” value (Bacillus anthracis; N 42 strains) was ≤0.015 mg/L. The MIC50 (Neisseria gonorrhoea [6]) was ≤ 0.015 mg/L, the MIC90 (Neisseria gonorrhoea [6]) was ≤ 0.015 mg/L and the stability ([7]; acid pH (<5)) was “very stable”. For the same compound, the stability ([7]; liquid state (Solution/Suspension)) was “highly unstable”, the stability ([7]; neutral to alkaline pH range (pH 5.0 to 10.0)) was “unstable” and the solution stability upto ([7]; pH 3.0-pH 5.0) was ≤ 24 h. For the same compound, the “MIC Range, high end” value [8] was ≤0.015 mg/L, the “MIC Range, low end” value [8] was ≤0.015 mg/L and the MIC50 ([8]; Mycoplasma leachii) was ≤ 0.015 mg/L. The MIC90 ([8]; Mycoplasma leachii) was ≤ 0.015 mg/L, the MIC50 (Francisella tularensis) was ≤ 0.015 mg/L and the MIC90 (Francisella tularensis) was ≤ 0.015 mg/L. For the same compound, the “MIC Range, high end” value (Francisella tularensis; N 36 strains) was ≤0.015 mg/L, the “MIC Range, low end” value (Francisella tularensis; N 36 strains) was ≤0.015 mg/L and the MIC50 (Legionella pneumophila; Legionella pneumophila) was ≤ 0.015 mg/L. For the same compound, the MIC90 (Legionella pneumophila; Legionella pneumophila) was ≤ 0.015 mg/L, the “MIC Range, high end” value (Legionella pneumophila; [11]) was ≤0.015 mg/L and the “MIC Range, low end” value (Legionella pneumophila; [11]) was ≤0.015 mg/L. The “MIC Range, high end” value (Hemophilus influenzae) was ≤0.015 mg/L, the “MIC Range, low end” value (Hemophilus influenzae) was ≤0.015 mg/L and the MIC50 (Hemophilus influenzae; Haemophilus influenzae) was ≤ 0.015 mg/L. For the same compound, the MIC90 (Hemophilus influenzae; Haemophilus influenzae) was ≤ 0.015 mg/L, the “MIC Range, high end” value [9] was 8 mg/L and the “MIC Range, low end” value [9] was ≤0.015 mg/L. The MIC50 ([9]; Bacteroides fragilis) was 0.06 mg/L, the MIC90 ([9]; Bacteroides fragilis) was 0.25 mg/L and the “MIC Range, high end” value (Moraxella catarrhalis) was ≤0.015 mg/L. For the same compound, the “MIC Range, low end” value (Moraxella catarrhalis) was ≤0.015 mg/L, the MIC50 (Moraxella catarrhalis; Moraxella catarrhalis) was ≤ 0.015 mg/L and the MIC90 (Moraxella catarrhalis; Moraxella catarrhalis) was ≤ 0.015 mg/L. The “MIC Range, high end” value (Enterococcus faecalis) was 0.25 mg/L, the “MIC Range, low end” value (Enterococcus faecalis) was <0.015 mg/L and the MIC50 (Enterococcus faecalis; Enterococcus faecalis) was 0.03 mg/L. The MIC90 (Enterococcus faecalis; Enterococcus faecalis) was 0.06 mg/L, the “MIC Range, high end” value [10] was 0.5 mg/L and the “MIC Range, low end” value [10] was ≤0.015 mg/L. The MIC50 ([10]; Fusobacterium) was ≤ 0.015 mg/L and the MIC90 ([10]; Fusobacterium) was ≤ 0.015 mg/L.

Source: patent US20260027125A1, “AN ANTIBACTERIAL PARENTERAL FORMULATION AND METHODS THEREOF” (BUGWORKS RESEARCH INDIA PVT. LTD., priority 2022, published 2026)
